Consider four molecules from ChEMBL document CHEMBL5380816, “Inclusion of Nitrofurantoin into the Realm of Cancer Chemotherapy via Biology-Oriented Synthesis and Drug Repurposing” (J Med Chem, 2023).

Molecules are shown by their SMILES. The source made the active and inactive calls. No cut-off for these calls is given here.

The term IC50 denotes the concentration needed to halve the response being measured. A lower IC50 goes with inhibition by little substance.

Assay [1] deals with MCF7. Nature of the assay: Induction of apoptosis in human MCF7 cells assessed as late apoptotic cells incubated at 0.098 uM for 72 hrs by annexin V-FITC based propidium iodide dual staining assay (reference value: 0.01%). The class given is functional.
In assay [2] the test system is HeLa. In words: Induction of apoptosis in human HeLa cells assessed as viable cells incubated at 0.098 uM for 72 hrs by annexin V-FITC based propidium iodide dual staining assay (reference value: 97.23%). It is filed as functional. The settings on record: read-out: Activity.
Assay [3] relates to HeLa. Nature of the assay: Induction of apoptosis in human HeLa cells assessed as pro-oxidant effect by measuring free radical generation measured at 0.098 uM after 72 hrs. The class given is functional, cell-based.
Assay [4] concerns HeLa. Nature of the assay: Induction of apoptosis in human HeLa cells assessed as late apoptotic cells incubated at 0.098 uM for 72 hrs by annexin V-FITC based propidium iodide dual staining assay (reference value: 0%). The class given is functional.
The test system of assay [5] is MCF7. Nature of the assay: Anticancer activity against human MCF7 cells assessed as cell shrinkage incubated at 0.098uM for 72 hrs by phase contrast inverted microscopic analysis. The class given is functional, cell-based.
Assay [6] deals with HeLa. Nature of the assay: Induction of apoptosis in human HeLa cells assessed as caspase3/7 activation at 0.098 uM using caspase-glo 3/7 as substrate relative to control. It is filed as functional.
The test system of assay [7] is Caco-2. In words: Induction of apoptosis in human Caco-2 cells assessed as viable cells incubated at 0.098 uM for 72 hrs by annexin V-FITC based propidium iodide dual staining assay (reference value: 99.89%). The settings on record: read-out: Activity. The class given is functional.
Assay [8] relates to MCF7. Nature of the assay: Induction of apoptosis in human MCF7 cells assessed as necrotic cells incubated at 0.098 uM for 72 hrs by annexin V-FITC based propidium iodide dual staining assay (reference value: 0.03%). The class given is functional.
Assay [9] deals with HeLa. In words: Induction of apoptosis in human HeLa cells assessed as late apoptotic cells by measuring orange to red patch incubated at 0.098 uM for 72 hrs by acridine orange-ethidium bromide dual staining based fluorescence microscopic analysis. It is filed as functional, cell-based.
Assay [10] concerns Caco-2. In words: Induction of apoptosis in human Caco-2 cells assessed as early apoptotic cells by measuring bright green patch incubated at 0.098 uM for 72 hrs by acridine orange-ethidium bromide dual staining based fluorescence microscopic analysis. The class given is functional, cell-based.
Assay [11] relates to Caco-2. In words: Anticancer activity against human Caco-2 cells assessed as cell shrinkage incubated at 0.11 uM for 72 hrs by phase contrast inverted microscopic analysis. It is filed as functional, cell-based.
The subject of the next assay is MDA-MB-231. Nature of the assay: Anticancer activity against human MDA-MB-231 cells incubated for 24 hrs by MTT assay. It is filed as functional, cell-based. The settings on record: MDA-MB-231, 24 h. (In general: Tetrazolium dyes change colour on reduction, which living cells bring about.)
The subject of assay [12] is Caco-2. Nature of the assay: Anticancer activity against human Caco-2 cells assessed as round cells incubated at 0.11 uM for 72 hrs by phase contrast inverted microscopic analysis. The class given is functional, cell-based.
Assay [13] deals with dsDNA. Nature of the assay: Induction of damage in dsDNA (unknown origin) assessed as disrupted by DNA by measuring decrease in fluorescence intensity at 100 uM by EvaGreen based fluorescence plate reader analysis. The settings on record: time <= 160.0 min, TDE = time-dependent effect. The class given is nucleic-acid assay.
The test system of assay [14] is HeLa. Nature of the assay: Induction of apoptosis in human HeLa cells assessed as early apoptotic cells incubated at 0.11 uM for 72 hrs by annexin V-FITC based propidium iodide dual staining assay (reference value: 2.77%). The class given is functional.
For assay [15], the system named is MCF7. Nature of the assay: Anticancer activity against human MCF7 cells assessed as absence of normal spindle shape incubated at 0.11 uM for 72 hrs by phase contrast inverted microscopic analysis. The class given is functional, cell-based.
The test system of assay [16] is Caco-2. In words: Anticancer activity against human Caco-2 cells incubated for 24 hrs by MTT assay. It is filed as functional, cell-based. The settings on record: Caco-2, 24 h.
In assay [17] the test system is MCF7. In words: Induction of cell cycle arrest in human MCF7 cells assessed as accumulation of cells at sub-G0/G1 phase incubated for 24 hrs. The class given is functional, cell-based.
Assay [18] relates to Caco-2. Nature of the assay: Induction of apoptosis in human Caco-2 cells assessed as late apoptotic cells by measuring orange to red patch incubated at 0.11 uM for 72 hrs by acridine orange-ethidium bromide dual staining based fluorescence microscopic analysis. The class given is functional, cell-based.
Assay [19] deals with dsDNA. Nature of the assay: Induction of damage in dsDNA (unknown origin) assessed as DNA disruption by measuring damage constant at 100 uM incubated for 2.5 hrs by EvaGreen based fluorescence plate reader analysis. The class given is nucleic-acid assay.
Assay [20] concerns Caco-2. In words: Induction of apoptosis in human Caco-2 cells assessed as viable cells incubated at 0.11 uM for 72 hrs by annexin V-FITC based propidium iodide dual staining assay (reference value: 99.89%). The class given is functional. The settings on record: read-out: Activity.
Assay [21] concerns MCF7. In words: Induction of apoptosis in human MCF7 cells assessed as early apoptotic cells incubated at 0.11 uM for 72 hrs by annexin V-FITC based propidium iodide dual staining assay (reference value: 0.06%). It is filed as functional.
For assay [22], the system named is MCF7. In words: Induction of apoptosis in human MCF7 cells assessed as early apoptotic cells incubated at 0.017 uM for 72 hrs by annexin V-FITC based propidium iodide dual staining assay (reference value: 0.06%). The class given is functional.
Assay [23] concerns Caco-2. In words: Induction of apoptosis in human Caco-2 cells assessed as late apoptotic cells incubated at 0.017 uM for 72 hrs by annexin V-FITC based propidium iodide dual staining assay (reference value: 0.02%). It is filed as functional.
The test system of assay [24] is HepG2. Nature of the assay: Induction of apoptosis in human HepG2 cells assessed as early apoptotic cells incubated at 0.017 uM for 72 hrs by annexin V-FITC based propidium iodide dual staining assay (reference value: 1.74%). It is filed as functional.
Assay [25] concerns MCF7. Nature of the assay: Induction of apoptosis in human MCF7 cells assessed as necrotic cells incubated at 0.017 uM for 72 hrs by annexin V-FITC based propidium iodide dual staining assay (reference value: 0.03%). The class given is functional.
For assay [26], the system named is Caco-2. Nature of the assay: Induction of apoptosis in human Caco-2 cells assessed as viable cells by measuring green uniform patch incubated at 0.017 uM for 72 hrs by acridine orange-ethidium bromide dual staining based fluorescence microscopic analysis. The class given is functional, cell-based.
The subject of assay [27] is HepG2. In words: Induction of apoptosis in human HepG2 cells assessed as total apoptotic cells incubated at 0.017 uM for 72 hrs by annexin V-FITC based propidium iodide dual staining assay (reference value: 0.99 +/- 0.02%). It is filed as functional.
Assay [28] concerns HeLa. Nature of the assay: Induction of apoptosis in human HeLa cells assessed as late apoptotic cells by measuring orange to red patch incubated at 0.097 uM for 72 hrs by acridine orange-ethidium bromide dual staining based fluorescence microscopic analysis. It is filed as functional, cell-based.
Assay [29] deals with Caco-2. Nature of the assay: Induction of apoptosis in human Caco-2 cells assessed as necrotic cells incubated at 0.097 uM for 72 hrs by annexin V-FITC based propidium iodide dual staining assay (reference value: 0.02%). It is filed as functional.
The test system of assay [30] is HeLa. Nature of the assay: Induction of apoptosis in human HeLa cells assessed as early apoptotic cells incubated at 0.097 uM for 72 hrs by annexin V-FITC based propidium iodide dual staining assay (reference value: 2.77%). The class given is functional.
Assay [31] relates to HeLa. In words: Induction of apoptosis in human HeLa cells assessed as necrotic cells incubated at 0.097 uM for 72 hrs by annexin V-FITC based propidium iodide dual staining assay (reference value: 0%). The class given is functional.
Assay [32] concerns Caco-2. Nature of the assay: Anticancer activity against human Caco-2 cells assessed as absence of normal spindle shape incubated at 0.097uM for 72 hrs by phase contrast inverted microscopic analysis. It is filed as functional, cell-based.
Assay [33] deals with HepG2. Nature of the assay: Induction of oxidative stress in human HepG2 cells assessed as cell death by measuring redox alteration fluorescence incubated at 0.098 uM for 72 hrs in presence of dihydro dichlorofluorescein diacetate by DCFH-DA based flow cytometric analysis relative to control. It is filed as functional.
For assay [34], the system named is Caco-2. In words: Induction of apoptosis in human Caco-2 cells assessed as total apoptotic cells incubated at 0.097 uM for 72 hrs by annexin V-FITC based propidium iodide dual staining assay (reference value: 0.04 +/- 0.005%). The class given is functional.

`O=C(CN1C(=O)CN(/N=C/c2ccc([N+](=O)[O-])o2)C1=O)c1ccc(Cl)cc1`: the Activity was found to be 38.55% with MCF7 [1], 62.92% with HeLa [4], 75% in the assay with HeLa [6] and 3.18% with MCF7 [8]. Moreover, the viability at 0.098 µM in the assay on HeLa [2] is 29.8%; with Caco-2 [7], 60.6%. Further, the outcome in the assay with HeLa [3], with MCF7 [5], in the assay on HeLa [9] and in the assay with Caco-2 [10] was Active.

On to `C#CCN1C(=O)CN(/N=C/c2ccc([N+](=O)[O-])o2)C1=O`, for which the outcome in the assay on Caco-2 [11], in the assay with Caco-2 [12], with MCF7 [15], in the assay on MCF7 [17] and with Caco-2 [18] was Active. For the same molecule, the IC50 was 242 µM in the assay with MDA-MB-231 and 89 µM with Caco-2 [16]. Also, the Activity entry in the assay with dsDNA [13] is “Tde”; in the assay on HeLa [14], 9.44%; in the assay on dsDNA [19], 8.41; in the assay on MCF7 [21], 7.55%. Besides, the viability at 0.11 µM in the assay with Caco-2 [20] stood at 49.4%.

On to `O=c1[nH]cc(F)c(=O)[nH]1` [FLUOROURACIL], for which the Activity in the assay with MCF7 [22] was determined as 6.16%; with Caco-2 [23], 2.71%; with HepG2 [24] it was 7.69%; in the assay on MCF7 [25], 0.68%; in the assay on HepG2 [27], 3.9%. The outcome with Caco-2 [26] was Active.

For the molecule `NS(=O)(=O)c1ccc(-n2cc(CN3C(=O)CN(/N=C/c4ccc([N+](=O)[O-])o4)C3=O)nn2)cc1`, the result with HeLa [28] and in the assay with Caco-2 [32] was Active. For the same molecule, the Activity stood at 13.8% with Caco-2 [29]; 17.31% in the assay on HeLa [30]; 4.26% in the assay with HeLa [31]; 48.51% in the assay with HepG2 [33]; 36.26% in the assay with Caco-2 [34].
